The values below come from publication PMC3553658 (Combinatorial chemistry & high throughput screening, 2012).

Common to all, as to type: biochemical
Experiment [1] addresses T1, SET8 (Homo sapiens, UniProt Q9NQR1).
T1 sequence (Q9NQR1 191-352 isoform Q9NQR1-2): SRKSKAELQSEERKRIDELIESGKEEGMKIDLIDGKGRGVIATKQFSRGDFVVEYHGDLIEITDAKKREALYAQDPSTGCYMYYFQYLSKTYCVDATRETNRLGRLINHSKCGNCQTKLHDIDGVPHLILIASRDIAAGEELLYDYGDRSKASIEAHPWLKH
The experiment is described as follows: SPIA-bead assay. Conditions: read-out: SET8 [% IHBN], SPIA primary screen, 10 μM compound, duplicate.

Experiment [2] addresses T2, SETD2 (Homo sapiens, UniProt Q9BYW2).
T2 sequence (Q9BYW2 1347-1711): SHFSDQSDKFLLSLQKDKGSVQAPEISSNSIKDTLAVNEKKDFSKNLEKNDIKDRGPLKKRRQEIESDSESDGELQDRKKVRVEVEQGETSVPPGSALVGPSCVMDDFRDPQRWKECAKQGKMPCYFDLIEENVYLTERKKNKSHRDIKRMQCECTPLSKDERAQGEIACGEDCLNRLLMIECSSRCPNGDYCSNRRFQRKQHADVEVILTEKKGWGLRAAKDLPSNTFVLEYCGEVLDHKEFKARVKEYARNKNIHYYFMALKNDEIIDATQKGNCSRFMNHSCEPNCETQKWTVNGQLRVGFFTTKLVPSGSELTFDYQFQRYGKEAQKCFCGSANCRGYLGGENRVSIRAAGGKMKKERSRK
In words: SPIA-bead assay. Conditions: SPIA primary screen, 10 μM compound, duplicate.

The target of experiment [3] is T3, SET7/9 (Homo sapiens, UniProt Q8WTS6).
T3 sequence (Q8WTS6 1-366): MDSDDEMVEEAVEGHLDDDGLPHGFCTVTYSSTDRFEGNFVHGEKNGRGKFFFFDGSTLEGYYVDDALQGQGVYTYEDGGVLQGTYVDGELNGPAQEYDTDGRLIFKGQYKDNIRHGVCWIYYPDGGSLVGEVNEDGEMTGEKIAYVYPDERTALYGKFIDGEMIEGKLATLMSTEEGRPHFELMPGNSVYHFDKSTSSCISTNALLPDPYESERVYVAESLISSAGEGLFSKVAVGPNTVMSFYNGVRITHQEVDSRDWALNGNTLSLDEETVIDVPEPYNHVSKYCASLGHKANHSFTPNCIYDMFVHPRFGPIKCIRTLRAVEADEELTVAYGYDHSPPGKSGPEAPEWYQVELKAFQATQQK
In words: Filter-paper assay dose response, SET7/9. The settings on record: up to 100 μM.

The target of experiment [4] is T1, SET8. In words: Filter-paper assay dose response, SET8. The settings on record: up to 100 μM.
For experiment [5], the target named is T2, SETD2. The experiment is described as follows: Filter-paper assay dose response, SETD2. The settings on record: up to 100 μM.
The next experiment has as its target T4, EuHMTase1 (Homo sapiens, UniProt Q9H9B1).
T4 sequence (Q9H9B1 982-1266): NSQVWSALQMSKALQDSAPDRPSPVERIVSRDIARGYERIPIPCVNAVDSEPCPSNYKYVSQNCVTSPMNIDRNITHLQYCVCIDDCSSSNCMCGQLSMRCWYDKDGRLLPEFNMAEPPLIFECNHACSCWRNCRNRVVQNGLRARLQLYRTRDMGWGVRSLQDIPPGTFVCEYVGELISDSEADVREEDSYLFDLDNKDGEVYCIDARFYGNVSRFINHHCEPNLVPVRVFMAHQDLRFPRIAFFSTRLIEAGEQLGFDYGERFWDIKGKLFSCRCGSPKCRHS
In words: Filter-paper assay dose response, EuHMTase1. Conditions: up to 100 μM.

Experiment [6] deals with T3, SET7/9. In words: SPIA-bead assay. The settings on record: SPIA primary screen, 10 μM compound, duplicate.

Entries after “also recorded” stand apart in the source; their conditions may differ.

Turning to `O=C(O)CCCC[C@@H]1SC[C@@H]2NC(=O)N[C@@H]21` [Biotin], on SET8 [1], the inhibition at 10 µM lay within 60 to 90%. In addition, at SETD2 [2], the “SETD2 [% IHBN]” value is reported as 60–90%. In addition, the “Inhibition of SET7/9 in filter-paper assay” value at SET7/9 [3] was “no inhibition; also recorded: did not find inhibition”. Also, the “Inhibition of SET8 in filter-paper assay” value at SET8 [4] is listed as “no inhibition; also recorded: did not find inhibition”. The “Inhibition of SETD2 in filter-paper assay” value on SETD2 [5] was “no inhibition; also recorded: did not find inhibition”. The “Inhibition of EuHMTase1 in filter-paper assay” value on EuHMTase1 was “no inhibition; also recorded: did not find inhibition”.

As for `O=C(Nc1ccc(C(=O)Nc2ccc(C(=O)Nc3ccc(S(=O)(=O)[O-])c4cc(S(=O)(=O)[O-])cc(S(=O)(=O)[O-])c34)cc2)cc1)Nc1ccc(C(=O)Nc2ccc(C(=O)Nc3ccc(S(=O)(=O)[O-])c4cc(S(=O)(=O)[O-])cc(S(=O)(=O)[O-])c34)cc2)cc1.[Na+].[Na+].[Na+].[Na+].[Na+].[Na+]` [NF 279, 8,8′-[Carbonylbis(imino-4,1-phenylenecarbonylimino-4,1-phenylenecarbonylimino)]bis-1,3,5-naphtlenetrisulfonic acid hexasodium salt], the “SET7/9 [% IHBN]” value at SET7/9 [6] turned out to be 83%.
